How the values were obtained:
[1] = system: Cladosporium carpophilium (ATCC 12117); assay: Antifungal activity, agar plate growth inhibition; assay type: cell-based, Cladosporium carpophilum; settings: 14 days
Procedure: (§1) Dilutions of the sterile solutions were prepared and added to liquified potato dextrose agar (Difco) to yield final concentrations of 100, 10 and 1 μg/ml. The agar, containing the appropriate organotin compound, was poured into sterile petri dishes and allowed to solidify over night. The agar surface was inoculated centrally with a 2 mm^2 portion of the growth from a ten-day-old culture of each fungus of the group consisting of Aspergillus niger, Chaetomium globosum, Cladosporium carpophilum, Fusarium moniliforme, Myrotheium verrucaria, Penicillium notatum, Rhizopus stolonifer, Trichoderma viride and Trichophyton mentagrophytes, or from a two-day-old culture of Saccharomyces cerevisiae. Inoculated plates were incubated for 14 days and observations of growth inhibition were made by measuring the diameters of the colonies present on the agar surface.
(§2) A solvent was included in all evaluations, as were growth controls for all fungal species.
(§3) The following compounds were tested for comparative purposes: [drawing 6] These compounds were tested for antifungal activity in the same manner as the triorganotin 5-nitro-2-furoates of the present invention.

[2] = system: Fusarium moniliforme (ATCC 10052); assay: Antifungal activity, agar plate growth inhibition; assay type: cell-based; settings: 14 days
Procedure: as §1, §2, §3

[3] = system: Saccharomyces cerevisiae (ATCC 9896); assay: Antifungal activity, agar plate growth inhibition; assay type: cell-based; settings: 14 days
Procedure: as §1, §2, §3

[4] = system: Trichoderma viride (ATCC 8678); assay: Antifungal activity, agar plate growth inhibition; assay type: cell-based; settings: 14 days
Procedure: as §1, §2, §3

[5] = system: Chaetomium globosum (ATCC 6205); assay: Antifungal activity, agar plate growth inhibition; assay type: cell-based; settings: 14 days
Procedure: as §1, §2, §3

[6] = system: Trichophyton mentagrophytes (ATCC 9129); assay: Antifungal activity, agar plate growth inhibition; assay type: cell-based; settings: 14 days
Procedure: as §1, §2, §3

[7] = system: Aspergillus niger (ATCC 12845); assay: Antifungal activity, agar plate growth inhibition; assay type: cell-based; settings: 14 days
Procedure: as §1, §2, §3

[8] = system: Penicillium notatum (ATCC 9179); assay: Antifungal activity, agar plate growth inhibition; assay type: cell-based; settings: 14 days
Procedure: as §1, §2, §3

[9] = system: Myrothecium verrucaria (ATCC 9095); assay: Antifungal activity, agar plate growth inhibition; assay type: cell-based; settings: 14 days
Procedure: as §1, §2, §3

[10] = system: Rhizopus stolonifer (ATCC 10404); assay: Antifungal activity, agar plate growth inhibition; assay type: cell-based; settings: 14 days
Procedure: as §1, §2, §3

Pseudomonas aeruginosa = assay: Antibacterial activity, agar growth inhibition; assay type: cell-based; settings: Gram-negative, 24 hours at 37° C.
Procedure: (§4) The agar was also needed with a 1:100 dilution of an 18-hour old culture of the desired bacterial species in sterile distilled water. The plates were incubated for 24 hours at 37° C. with each bacterial strain. Observations of bacterial growth inhibition were made following the appropriate incubation period.
(§5) A solvent control was included in all evaluations, as were growth controls for all bacteria species.
(§6) These compounds were tested for antibacterial activity in the same manner as the triorganotin 5-nitro-2-furoates of the present invention.
(§7) All of the bacteria tested were obtained from the culture collection of the Department of Biological Sciences, St. John's University.

Escherichia coli = assay: Antibacterial activity, agar growth inhibition; assay type: cell-based; settings: for growth inhibition: Gram-negative, 24 hours at 37° C.
Procedure: as §4, §5, §6, §7

Staphylococcus aureus = assay: Antibacterial activity, agar growth inhibition; assay type: cell-based; parameters: key to growth inhibition: -: no inhibition of growth; +: partial inhibition; 2+: complete inhibition; settings: Gram-positive; 1 μg/ml; 24 hours at 37° C.
Procedure: as §4, with “The antibacterial activity of Compounds A-E was investigated by means of incorporating the compounds into sterile tryptic soy agar (Difco) at levels of 100, 10, and 1 μg/ml. The agar” for “The agar”
as §5
Comparative compounds 1-5 above were employed for comparison purposes. These compounds were tested for antibacterial activity in the same manner as the triorganotin 5-nitro-2-furoates of the present invention.
as §7
The ability of Compound B to inhibit the growth of other Gram-positive bacteria, using the same test procedures as described for the antibacterial activity determined in Table III above, is illustrated in Table IV below.

Molecule | growth inhibition ([1]; 1 μg/ml) | growth inhibition ([1]; 10 μg/ml) | growth inhibition ([1]; 100 μg/ml) | growth inhibition ([2]; 1 μg/ml) | growth inhibition ([2]; 10 μg/ml) | growth inhibition ([2]; 100 μg/ml) | growth inhibition ([3]; 1 μg/ml) | growth inhibition ([3]; 10 μg/ml) | growth inhibition ([3]; 100 μg/ml) | growth inhibition ([4]; 1 μg/ml) | growth inhibition ([4]; 10 μg/ml) | growth inhibition ([4]; 100 μg/ml) | growth inhibition ([5]; 1 μg/ml) | growth inhibition ([5]; 10 μg/ml) | growth inhibition ([5]; 100 μg/ml) | growth inhibition ([6]; 1 μg/ml) | growth inhibition ([6]; 10 μg/ml) | growth inhibition ([6]; 100 μg/ml) | growth inhibition ([7]; 1 μg/ml) | growth inhibition ([7]; 10 μg/ml) | other results
N--nitrophenyl, N--(triphenylstannyl) cyanamide [compound 1, reference compound] | + | + | + | + | + | + | - | - | + | - | + | + | + | + | 2+ | + | + | 2+ | + | + | growth inhibition ([7]; 100 μg/ml): +; growth inhibition ([8]; 1 μg/ml): +; growth inhibition ([8]; 10 μg/ml): +; growth inhibition ([8]; 100 μg/ml): +; growth inhibition ([9]; 1 μg/ml): +; growth inhibition ([9]; 10 μg/ml): +; growth inhibition ([9]; 100 μg/ml): +; growth inhibition ([10]; 1 μg/ml): +; growth inhibition ([10]; 10 μg/ml): +; growth inhibition ([10]; 100 μg/ml): +
Tri(2-phenyl-2,2-dimethylethyl)tin 5-nitro-2-furoate [Compound D] | - | - | - | - | - | - | - | - | - | - | - | - | - | + | + | + | + | + | - | - | growth inhibition ([7]; 100 μg/ml): -; growth inhibition ([8]; 1 μg/ml): -; growth inhibition ([8]; 10 μg/ml): +; growth inhibition ([8]; 100 μg/ml): +; growth inhibition ([9]; 1 μg/ml): -; growth inhibition ([9]; 10 μg/ml): +; growth inhibition ([9]; 100 μg/ml): +; growth inhibition ([10]; 1 μg/ml): -; growth inhibition ([10]; 10 μg/ml): -; growth inhibition ([10]; 100 μg/ml): -; growth inhibition (Pseudomonas aeruginosa; 1 μg/ml): -; growth inhibition (Pseudomonas aeruginosa; 10 μg/ml): -; growth inhibition (Pseudomonas aeruginosa; 100 μg/ml): -; growth inhibition (Escherichia coli; 1 μg/ml): -; growth inhibition (Escherichia coli; 10 μg/ml): -; growth inhibition (Escherichia coli; 100 μg/ml): -; growth inhibition (Staphylococcus aureus): -
N#CN=C(Nc1ccccc1)[S][Sn]([c]1ccccc1)([c]1ccccc1)[c]1ccccc1 [compound 2, N--phenyl, N'--cyano-S--(triphenylstannyl)-isothiourea, reference compound] | - | - | - | - | + | + | - | - | - | - | - | + | - | + | + | - | + | + | - | + | growth inhibition ([7]; 100 μg/ml): 2+; growth inhibition ([8]; 1 μg/ml): -; growth inhibition ([8]; 10 μg/ml): +; growth inhibition ([8]; 100 μg/ml): +; growth inhibition ([9]; 1 μg/ml): -; growth inhibition ([9]; 10 μg/ml): +; growth inhibition ([9]; 100 μg/ml): +; growth inhibition ([10]; 1 μg/ml): -; growth inhibition ([10]; 10 μg/ml): +; growth inhibition ([10]; 100 μg/ml): 2+; growth inhibition (in words) (Escherichia coli; 100 μg/ml): partially; growth inhibition (Escherichia coli; 1 μg/ml): -; growth inhibition (Escherichia coli; 10 μg/ml): -

Source: patent US4497806A, “Triorganotin compounds, antifungal and antibacterial compositions containing same, and method of using same” (priority 1983, dated 1985)
